Assay results: ChEMBL document CHEMBL3885881, “DrugMatrix”

Species on record: Rattus norvegicus
Test: DrugMatrix - Regimen: Daily Repeat
Type: toxicity, organism-based, Sprague-Dawley
Parameters: regimen Daily Repeat, gender Male, age 6-8 weeks
Conditions: in vivo, po, route oral GAVAGE, vehicle 100 % WATER; for BASOPHIL / EOSINOPHIL / ERYTHROCYTE COUNT / HEMATOCRIT / HEMOGLOBIN / LEUKOCYTE COUNT / LYMPHOCYTE / MEAN CORPUSCULAR HEMOGLOBIN / MEAN CORPUSCULAR HEMOGLOBIN CONCENTRATION / MEAN CORPUSCULAR VOLUME / MONOCYTE / NEUTROPHIL / PLATELET COUNT: tissue Blood; for ALANINE AMINOTRANSFERASE / ALBUMIN / ALKALINE PHOSPHATASE / ASPARTATE AMINOTRANSFERASE / BLOOD UREA NITROGEN / CHLORIDE / CHOLESTEROL / CREATINE PHOSPHOKINASE / CREATININE / GLUCOSE / PHOSPHORUS / POTASSIUM / SODIUM / TOTAL BILIRUBIN / TOTAL PROTEIN: tissue Plasma
[1] = 0 mg/kg, 72 h, dose level Control, time 3 day
[2] = 0 mg/kg, 120 h, dose level Control, time 5 day
[3] = 3 mg/kg, 72 h, dose level Low, time 3 day
[4] = 3 mg/kg, 120 h, dose level Low, time 5 day
[5] = 24 mg/kg, 72 h, dose level High, time 3 day
[6] = 24 mg/kg, 120 h, dose level High, time 5 day

With `Nc1c2c(nc3ccccc13)CCCC2` [TACRINE] the BASOPHIL [1] was 0%, the EOSINOPHIL [1] was 0.5% and the “ERYTHROCYTE COUNT” value [1] was 5.8 x10E6/uL. The HEMATOCRIT [1] was 35.07%, the HEMOGLOBIN [1] was 14.12 G/DL and the “LEUKOCYTE COUNT” value [1] was 13.7 x10E3/uL. The LYMPHOCYTE [1] was 82.33%, the “MEAN CORPUSCULAR HEMOGLOBIN” value [1] was 24.38 pg and the “MEAN CORPUSCULAR HEMOGLOBIN CONCENTRATION” value [1] was 40.28 G/DL. For the same compound, the “MEAN CORPUSCULAR VOLUME” value [1] was 60.52 fL, the MONOCYTE [1] was 2.67% and the NEUTROPHIL [1] was 14.5%. For the same compound, the “PLATELET COUNT” value [1] was 911.5 x10E3/uL, the “ALANINE AMINOTRANSFERASE” value [1] was 36.83 u/L and the ALBUMIN [1] was 3.75 G/DL. The “ALKALINE PHOSPHATASE” value [1] was 399.83 u/L, the “ASPARTATE AMINOTRANSFERASE” value [1] was 66 u/L and the “BLOOD UREA NITROGEN” value [1] was 14.67 mg/dL. For the same compound, the CHLORIDE [1] was 101.67 MEQ/L, the CHOLESTEROL [1] was 66.33 mg/dL and the “CREATINE PHOSPHOKINASE” value [1] was 139.5 u/L. The CREATININE [1] was 0.92 mg/dL, the GLUCOSE [1] was 175 mg/dL and the PHOSPHORUS [1] was 11.42 mg/dL. For the same compound, the POTASSIUM [1] was 7.03 MEQ/L, the SODIUM [1] was 148.5 MEQ/L and the “TOTAL BILIRUBIN” value [1] was 1.13 mg/dL. The “TOTAL PROTEIN” value [1] was 6.87 G/DL, the BASOPHIL [2] was 0% and the EOSINOPHIL [2] was 0.2%. The “ERYTHROCYTE COUNT” value [2] was 6.02 x10E6/uL, the HEMATOCRIT [2] was 36.48% and the HEMOGLOBIN [2] was 14.38 G/DL. The “LEUKOCYTE COUNT” value [2] was 12.34 x10E3/uL, the LYMPHOCYTE [2] was 83% and the “MEAN CORPUSCULAR HEMOGLOBIN” value [2] was 23.92 pg. For the same compound, the “MEAN CORPUSCULAR HEMOGLOBIN CONCENTRATION” value [2] was 39.44 G/DL, the “MEAN CORPUSCULAR VOLUME” value [2] was 60.66 fL and the MONOCYTE [2] was 3%. For the same compound, the NEUTROPHIL [2] was 13.8%, the “PLATELET COUNT” value [2] was 1190.6 x10E3/uL and the “ALANINE AMINOTRANSFERASE” value [2] was 43 u/L. The ALBUMIN [2] was 3.73 G/DL, the “ALKALINE PHOSPHATASE” value [2] was 393 u/L and the “ASPARTATE AMINOTRANSFERASE” value [2] was 62.33 u/L. The “BLOOD UREA NITROGEN” value [2] was 16.33 mg/dL, the CHLORIDE [2] was 101.67 MEQ/L and the CHOLESTEROL [2] was 65.5 mg/dL. For the same compound, the “CREATINE PHOSPHOKINASE” value [2] was 130.67 u/L, the CREATININE [2] was 0.58 mg/dL and the GLUCOSE [2] was 180.67 mg/dL. For the same compound, the PHOSPHORUS [2] was 11.28 mg/dL, the POTASSIUM [2] was 7.05 MEQ/L and the SODIUM [2] was 148.17 MEQ/L. The “TOTAL BILIRUBIN” value [2] was 0.72 mg/dL, the “TOTAL PROTEIN” value [2] was 6.83 G/DL and the BASOPHIL [3] was 0%. For the same compound, the EOSINOPHIL [3] was 0.33%, the “ERYTHROCYTE COUNT” value [3] was 5.96 x10E6/uL and the HEMATOCRIT [3] was 36.4%. The HEMOGLOBIN [3] was 14.47 G/DL, the “LEUKOCYTE COUNT” value [3] was 12.6 x10E3/uL and the LYMPHOCYTE [3] was 87.33%. The “MEAN CORPUSCULAR HEMOGLOBIN” value [3] was 24.3 pg, the “MEAN CORPUSCULAR HEMOGLOBIN CONCENTRATION” value [3] was 39.77 G/DL and the “MEAN CORPUSCULAR VOLUME” value [3] was 61.13 fL. The MONOCYTE [3] was 1.67%, the NEUTROPHIL [3] was 10.67% and the “PLATELET COUNT” value [3] was 1303 x10E3/uL. The “ALANINE AMINOTRANSFERASE” value [3] was 36.33 u/L, the ALBUMIN [3] was 3.6 G/DL and the “ALKALINE PHOSPHATASE” value [3] was 362.33 u/L. For the same compound, the “ASPARTATE AMINOTRANSFERASE” value [3] was 59 u/L, the “BLOOD UREA NITROGEN” value [3] was 11.33 mg/dL and the CHLORIDE [3] was 102.67 MEQ/L. The CHOLESTEROL [3] was 64.33 mg/dL, the “CREATINE PHOSPHOKINASE” value [3] was 137.67 u/L and the CREATININE [3] was 0.53 mg/dL. It also gave a GLUCOSE [3] of 188 mg/dL, a PHOSPHORUS [3] of 12.8 mg/dL and a POTASSIUM [3] of 7.17 MEQ/L. The SODIUM [3] was 151.33 MEQ/L, the “TOTAL BILIRUBIN” value [3] was 0.37 mg/dL and the BASOPHIL [4] was 0%. The EOSINOPHIL [4] was 0%, the “ERYTHROCYTE COUNT” value [4] was 5.42 x10E6/uL and the HEMATOCRIT [4] was 32.47%. For the same compound, the HEMOGLOBIN [4] was 13.8 G/DL, the “LEUKOCYTE COUNT” value [4] was 15.5 x10E3/uL and the LYMPHOCYTE [4] was 85.67%. For the same compound, the “MEAN CORPUSCULAR HEMOGLOBIN” value [4] was 25.47 pg, the “MEAN CORPUSCULAR HEMOGLOBIN CONCENTRATION” value [4] was 42.53 G/DL and the “MEAN CORPUSCULAR VOLUME” value [4] was 59.87 fL. For the same compound, the MONOCYTE [4] was 2%, the NEUTROPHIL [4] was 12.33% and the “PLATELET COUNT” value [4] was 1161.67 x10E3/uL. For the same compound, the “ALANINE AMINOTRANSFERASE” value [4] was 32 u/L, the ALBUMIN [4] was 3.63 G/DL and the “ALKALINE PHOSPHATASE” value [4] was 344.33 u/L. For the same compound, the “ASPARTATE AMINOTRANSFERASE” value [4] was 54 u/L, the “BLOOD UREA NITROGEN” value [4] was 12.67 mg/dL and the CHLORIDE [4] was 103 MEQ/L. For the same compound, the CHOLESTEROL [4] was 67.33 mg/dL, the “CREATINE PHOSPHOKINASE” value [4] was 106 u/L and the CREATININE [4] was 0.57 mg/dL. The GLUCOSE [4] was 184.33 mg/dL, the PHOSPHORUS [4] was 12.4 mg/dL and the POTASSIUM [4] was 6.33 MEQ/L. The SODIUM [4] was 150.33 MEQ/L, the “TOTAL BILIRUBIN” value [4] was 0.37 mg/dL and the “TOTAL PROTEIN” value [4] was 6.6 G/DL. For the same compound, the BASOPHIL [5] was 0%, the EOSINOPHIL [5] was 0.33% and the “ERYTHROCYTE COUNT” value [5] was 6.15 x10E6/uL. For the same compound, the HEMATOCRIT [5] was 36.57%, the HEMOGLOBIN [5] was 14.57 G/DL and the “LEUKOCYTE COUNT” value [5] was 11.57 x10E3/uL. The LYMPHOCYTE [5] was 88%, the “MEAN CORPUSCULAR HEMOGLOBIN” value [5] was 23.7 pg and the “MEAN CORPUSCULAR HEMOGLOBIN CONCENTRATION” value [5] was 39.83 G/DL. The “MEAN CORPUSCULAR VOLUME” value [5] was 59.5 fL, the MONOCYTE [5] was 2.67% and the NEUTROPHIL [5] was 9%. The “PLATELET COUNT” value [5] was 1311.33 x10E3/uL, the “ALANINE AMINOTRANSFERASE” value [5] was 35.33 u/L and the ALBUMIN [5] was 3.7 G/DL. For the same compound, the “ALKALINE PHOSPHATASE” value [5] was 375 u/L, the “ASPARTATE AMINOTRANSFERASE” value [5] was 63.67 u/L and the “BLOOD UREA NITROGEN” value [5] was 12 mg/dL. For the same compound, the CHLORIDE [5] was 101.67 MEQ/L, the CHOLESTEROL [5] was 59.33 mg/dL and the “CREATINE PHOSPHOKINASE” value [5] was 117 u/L. For the same compound, the CREATININE [5] was 0.53 mg/dL, the GLUCOSE [5] was 189 mg/dL and the PHOSPHORUS [5] was 12.73 mg/dL. The POTASSIUM [5] was 6.83 MEQ/L, the SODIUM [5] was 150 MEQ/L and the “TOTAL BILIRUBIN” value [5] was 0.37 mg/dL. The “TOTAL PROTEIN” value [5] was 6.53 G/DL, the BASOPHIL [6] was 0% and the EOSINOPHIL [6] was 0.33%. The “ERYTHROCYTE COUNT” value [6] was 6.22 x10E6/uL, the HEMATOCRIT [6] was 37.53% and the HEMOGLOBIN [6] was 14.57 G/DL. The “LEUKOCYTE COUNT” value [6] was 11.73 x10E3/uL, the LYMPHOCYTE [6] was 88.33% and the “MEAN CORPUSCULAR HEMOGLOBIN” value [6] was 23.43 pg. The “MEAN CORPUSCULAR HEMOGLOBIN CONCENTRATION” value [6] was 38.8 G/DL, the “MEAN CORPUSCULAR VOLUME” value [6] was 60.47 fL and the MONOCYTE [6] was 2.33%. The NEUTROPHIL [6] was 9%, the “PLATELET COUNT” value [6] was 1085 x10E3/uL and the “ALANINE AMINOTRANSFERASE” value [6] was 38 u/L. For the same compound, the ALBUMIN [6] was 3.53 G/DL, the “ALKALINE PHOSPHATASE” value [6] was 295.33 u/L and the “ASPARTATE AMINOTRANSFERASE” value [6] was 62.67 u/L. The “BLOOD UREA NITROGEN” value [6] was 13.33 mg/dL, the CHLORIDE [6] was 104.67 MEQ/L and the CHOLESTEROL [6] was 62 mg/dL. For the same compound, the “CREATINE PHOSPHOKINASE” value [6] was 114.67 u/L, the CREATININE [6] was 0.6 mg/dL and the GLUCOSE [6] was 171 mg/dL. It also gave a PHOSPHORUS [6] of 12.57 mg/dL, a POTASSIUM [6] of 6.4 MEQ/L and an SODIUM [6] of 152.33 MEQ/L. The “TOTAL BILIRUBIN” value [6] was 0.27 mg/dL and the “TOTAL PROTEIN” value [6] was 6.33 G/DL.
